In ChEMBL document CHEMBL1201862, “PubChem BioAssay data set” (2004):
Active and inactive are the calls of the source.

Legend:
[1] = biological target: T1, Mannose-6-phosphate isomerase (Homo sapiens, UniProt P34949); experiment: MPI inhibition at elevated mannose 6-phosphate – biochemical, fluorescence intensity, high mannose 6-phosphate, primary screen (AID 1220)
T1 sequence (P34949 whole entry): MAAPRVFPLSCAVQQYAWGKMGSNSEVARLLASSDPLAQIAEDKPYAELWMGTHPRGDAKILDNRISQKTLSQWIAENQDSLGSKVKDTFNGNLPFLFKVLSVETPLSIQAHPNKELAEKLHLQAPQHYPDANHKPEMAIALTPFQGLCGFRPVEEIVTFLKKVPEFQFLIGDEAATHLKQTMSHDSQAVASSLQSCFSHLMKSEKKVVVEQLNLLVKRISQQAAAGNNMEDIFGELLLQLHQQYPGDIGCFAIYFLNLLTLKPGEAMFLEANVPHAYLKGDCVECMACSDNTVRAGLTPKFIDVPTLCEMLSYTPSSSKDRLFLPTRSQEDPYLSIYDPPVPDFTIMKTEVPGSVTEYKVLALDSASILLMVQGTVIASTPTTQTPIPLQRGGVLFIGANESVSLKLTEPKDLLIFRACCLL

[2] = biological target: T1, Mannose-6-phosphate isomerase; experiment: MPI enzyme activity inhibition – biochemical, fluorescence intensity, coupled assay, primary screen (AID 1209)
[3] = biological target: T2, Histone-lysine N-methyltransferase NSD2 (Homo sapiens, UniProt O96028); type: biochemical
T2 sequence (O96028 whole entry): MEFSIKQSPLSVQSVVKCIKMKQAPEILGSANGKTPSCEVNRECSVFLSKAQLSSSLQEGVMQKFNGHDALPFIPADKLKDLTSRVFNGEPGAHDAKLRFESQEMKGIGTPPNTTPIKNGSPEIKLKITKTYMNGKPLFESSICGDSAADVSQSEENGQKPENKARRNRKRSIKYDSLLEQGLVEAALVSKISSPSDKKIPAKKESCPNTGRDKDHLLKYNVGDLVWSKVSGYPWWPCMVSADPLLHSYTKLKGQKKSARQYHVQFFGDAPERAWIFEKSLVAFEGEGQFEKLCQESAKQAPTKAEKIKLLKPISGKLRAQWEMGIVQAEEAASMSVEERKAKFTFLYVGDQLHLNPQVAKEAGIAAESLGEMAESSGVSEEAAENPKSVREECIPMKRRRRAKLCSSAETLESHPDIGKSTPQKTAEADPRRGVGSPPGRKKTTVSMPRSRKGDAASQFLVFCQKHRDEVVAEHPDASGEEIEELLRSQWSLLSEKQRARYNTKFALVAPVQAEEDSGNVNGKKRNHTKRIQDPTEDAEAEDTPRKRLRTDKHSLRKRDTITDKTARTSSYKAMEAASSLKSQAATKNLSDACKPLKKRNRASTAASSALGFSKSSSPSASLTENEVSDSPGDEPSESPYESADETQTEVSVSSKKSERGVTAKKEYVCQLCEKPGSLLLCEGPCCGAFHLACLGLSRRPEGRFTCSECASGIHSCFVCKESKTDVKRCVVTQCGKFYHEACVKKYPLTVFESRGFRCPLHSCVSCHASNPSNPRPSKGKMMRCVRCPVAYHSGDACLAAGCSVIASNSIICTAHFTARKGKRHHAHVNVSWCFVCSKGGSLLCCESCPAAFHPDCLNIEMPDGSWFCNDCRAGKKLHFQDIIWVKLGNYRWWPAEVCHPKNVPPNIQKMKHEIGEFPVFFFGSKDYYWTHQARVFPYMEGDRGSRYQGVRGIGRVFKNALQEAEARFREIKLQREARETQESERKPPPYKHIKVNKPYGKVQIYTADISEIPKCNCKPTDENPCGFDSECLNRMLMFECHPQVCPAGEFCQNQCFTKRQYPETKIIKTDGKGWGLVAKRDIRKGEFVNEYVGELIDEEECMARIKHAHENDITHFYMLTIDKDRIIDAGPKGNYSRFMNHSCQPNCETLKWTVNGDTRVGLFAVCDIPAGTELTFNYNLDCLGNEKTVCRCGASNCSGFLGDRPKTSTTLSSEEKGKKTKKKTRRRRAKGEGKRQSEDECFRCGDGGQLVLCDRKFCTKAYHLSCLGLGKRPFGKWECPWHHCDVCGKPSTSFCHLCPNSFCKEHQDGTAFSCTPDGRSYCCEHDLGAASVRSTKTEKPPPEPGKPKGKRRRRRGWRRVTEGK

Melanocortin receptor 4 = Melanocortin receptor 4 (Homo sapiens, UniProt P32245); experiment: inhibitors of MC4R cAMP signaling – cell-based, TR-FRET, biased antagonists, dose response (AID 602298); type: functional;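 also: antagonist potency against agonist-stimulated cAMP production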
Chain of Melanocortin receptor 4 (P32245 whole entry): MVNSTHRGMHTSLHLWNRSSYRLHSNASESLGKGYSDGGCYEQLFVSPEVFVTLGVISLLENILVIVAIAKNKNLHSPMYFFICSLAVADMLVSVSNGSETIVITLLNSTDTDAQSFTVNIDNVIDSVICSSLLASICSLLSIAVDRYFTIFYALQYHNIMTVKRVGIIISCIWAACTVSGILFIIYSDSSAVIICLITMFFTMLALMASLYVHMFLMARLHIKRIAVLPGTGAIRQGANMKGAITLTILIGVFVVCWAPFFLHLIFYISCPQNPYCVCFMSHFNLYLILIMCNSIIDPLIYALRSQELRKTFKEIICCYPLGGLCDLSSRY

[4] = cAMP pathway inhibition in counterscreen cell line – TR-FRET cAMP detection, counter-screen for MC4R biased antagonist project, dose response (AID 602305); type: functional, cell-based;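 also: U2OS cells stimulated with forskolin near its EC80 as the cAMP inducer; potency is for inhibition of forskolin-stimulated cAMP signaling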
[5] = biological target: T3, Neuropeptide Y receptor type 2 (Homo sapiens, UniProt P49146); type: functional, cell-based;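 as to IC50: HEK293 cells expressing the receptor and a CNG channel; stimulus was NPY near EC95 followed by isoproterenol to raise cAMP; antagonist potency measured as restoring cAMP signal that NPY suppresses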
T3 sequence (P49146 whole entry): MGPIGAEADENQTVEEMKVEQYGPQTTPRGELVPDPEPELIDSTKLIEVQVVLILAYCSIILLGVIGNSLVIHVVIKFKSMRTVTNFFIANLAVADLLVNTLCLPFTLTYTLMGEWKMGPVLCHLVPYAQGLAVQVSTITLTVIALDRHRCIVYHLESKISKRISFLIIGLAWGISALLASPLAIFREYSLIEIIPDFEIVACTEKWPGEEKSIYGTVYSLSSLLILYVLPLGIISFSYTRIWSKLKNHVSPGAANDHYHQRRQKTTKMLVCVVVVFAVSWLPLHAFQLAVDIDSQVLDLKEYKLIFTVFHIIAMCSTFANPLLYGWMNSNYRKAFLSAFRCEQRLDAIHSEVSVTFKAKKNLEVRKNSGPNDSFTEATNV

[6] = biological target: T4, Neuropeptide Y receptor type 1 (Homo sapiens, UniProt P25929); type: functional;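 as to IC50: HEK293 cells with a CNG channel challenged with NPY then isoproterenol; potency as antagonist that reverses NPY suppression of cAMP signal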
T4 sequence (P25929 whole entry): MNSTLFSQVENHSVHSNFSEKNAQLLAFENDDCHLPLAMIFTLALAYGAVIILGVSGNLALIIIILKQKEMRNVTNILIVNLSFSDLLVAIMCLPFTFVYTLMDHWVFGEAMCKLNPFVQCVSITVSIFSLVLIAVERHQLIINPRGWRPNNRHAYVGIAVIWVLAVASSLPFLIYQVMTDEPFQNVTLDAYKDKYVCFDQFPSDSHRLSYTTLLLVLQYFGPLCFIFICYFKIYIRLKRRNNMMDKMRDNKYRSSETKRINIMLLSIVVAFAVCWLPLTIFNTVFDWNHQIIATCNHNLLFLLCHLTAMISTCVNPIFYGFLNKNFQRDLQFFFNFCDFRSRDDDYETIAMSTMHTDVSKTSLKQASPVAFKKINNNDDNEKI

[7] = viability of PTEN-deleted HCT116 cells – cell-based, HCT116 PTEN knockout, dose response (AID 1047); type: functional;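 also: HCT116 colon tumor cells with PTEN knocked out; cells exposed to compound for 60 hours before readout; potency for loss of cell viability measured by luminescence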
Mucolipin-3 = Mucolipin-3 (Homo sapiens, UniProt Q8TDD5); experiment: Dose response cell-based high-throughput screening assay for agonists of the transient receptor potential channel ML3 (TRPML3). [Related pubchem assays: 1526, 1424, 1448 ]; type: functional
Chain of Mucolipin-3 (Q8TDD5 whole entry): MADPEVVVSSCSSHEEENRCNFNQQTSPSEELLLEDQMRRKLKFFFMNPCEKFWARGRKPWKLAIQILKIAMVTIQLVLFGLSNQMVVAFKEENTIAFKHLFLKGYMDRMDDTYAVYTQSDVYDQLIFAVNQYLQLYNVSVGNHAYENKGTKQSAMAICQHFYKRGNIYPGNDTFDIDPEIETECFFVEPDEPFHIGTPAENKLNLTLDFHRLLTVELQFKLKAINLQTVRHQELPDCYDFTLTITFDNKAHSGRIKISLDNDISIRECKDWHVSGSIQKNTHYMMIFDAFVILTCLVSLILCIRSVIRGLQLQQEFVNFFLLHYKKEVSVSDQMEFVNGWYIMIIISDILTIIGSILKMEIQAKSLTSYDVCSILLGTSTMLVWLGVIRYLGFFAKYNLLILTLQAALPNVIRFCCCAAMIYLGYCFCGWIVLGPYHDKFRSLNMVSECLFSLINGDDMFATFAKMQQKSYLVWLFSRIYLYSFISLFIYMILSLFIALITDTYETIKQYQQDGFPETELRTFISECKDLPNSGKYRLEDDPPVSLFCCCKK

[8] = viability of HCT116 lacking mutant beta-catenin – cell-based, human colon tumor, dose response (AID 1045); type: functional;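 also: HCT116 colon tumor cells with beta catenin knocked out; cells exposed to compound for 60 hours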
Ion channel NompC = Ion channel NompC (Danio rerio, UniProt Q7T1G6); experiment: Fluorescence counterscreen assay for TRPML3 agonists: dose response cell-based high-throughput screening assay to identify agonists of the transient receptor potential channel N1 (TRPN1). [Related pubchem assays: 1526, 1424, 1448 ]; type: functional
Chain of Ion channel NompC (Q7T1G6 whole entry, the tested form may be a part): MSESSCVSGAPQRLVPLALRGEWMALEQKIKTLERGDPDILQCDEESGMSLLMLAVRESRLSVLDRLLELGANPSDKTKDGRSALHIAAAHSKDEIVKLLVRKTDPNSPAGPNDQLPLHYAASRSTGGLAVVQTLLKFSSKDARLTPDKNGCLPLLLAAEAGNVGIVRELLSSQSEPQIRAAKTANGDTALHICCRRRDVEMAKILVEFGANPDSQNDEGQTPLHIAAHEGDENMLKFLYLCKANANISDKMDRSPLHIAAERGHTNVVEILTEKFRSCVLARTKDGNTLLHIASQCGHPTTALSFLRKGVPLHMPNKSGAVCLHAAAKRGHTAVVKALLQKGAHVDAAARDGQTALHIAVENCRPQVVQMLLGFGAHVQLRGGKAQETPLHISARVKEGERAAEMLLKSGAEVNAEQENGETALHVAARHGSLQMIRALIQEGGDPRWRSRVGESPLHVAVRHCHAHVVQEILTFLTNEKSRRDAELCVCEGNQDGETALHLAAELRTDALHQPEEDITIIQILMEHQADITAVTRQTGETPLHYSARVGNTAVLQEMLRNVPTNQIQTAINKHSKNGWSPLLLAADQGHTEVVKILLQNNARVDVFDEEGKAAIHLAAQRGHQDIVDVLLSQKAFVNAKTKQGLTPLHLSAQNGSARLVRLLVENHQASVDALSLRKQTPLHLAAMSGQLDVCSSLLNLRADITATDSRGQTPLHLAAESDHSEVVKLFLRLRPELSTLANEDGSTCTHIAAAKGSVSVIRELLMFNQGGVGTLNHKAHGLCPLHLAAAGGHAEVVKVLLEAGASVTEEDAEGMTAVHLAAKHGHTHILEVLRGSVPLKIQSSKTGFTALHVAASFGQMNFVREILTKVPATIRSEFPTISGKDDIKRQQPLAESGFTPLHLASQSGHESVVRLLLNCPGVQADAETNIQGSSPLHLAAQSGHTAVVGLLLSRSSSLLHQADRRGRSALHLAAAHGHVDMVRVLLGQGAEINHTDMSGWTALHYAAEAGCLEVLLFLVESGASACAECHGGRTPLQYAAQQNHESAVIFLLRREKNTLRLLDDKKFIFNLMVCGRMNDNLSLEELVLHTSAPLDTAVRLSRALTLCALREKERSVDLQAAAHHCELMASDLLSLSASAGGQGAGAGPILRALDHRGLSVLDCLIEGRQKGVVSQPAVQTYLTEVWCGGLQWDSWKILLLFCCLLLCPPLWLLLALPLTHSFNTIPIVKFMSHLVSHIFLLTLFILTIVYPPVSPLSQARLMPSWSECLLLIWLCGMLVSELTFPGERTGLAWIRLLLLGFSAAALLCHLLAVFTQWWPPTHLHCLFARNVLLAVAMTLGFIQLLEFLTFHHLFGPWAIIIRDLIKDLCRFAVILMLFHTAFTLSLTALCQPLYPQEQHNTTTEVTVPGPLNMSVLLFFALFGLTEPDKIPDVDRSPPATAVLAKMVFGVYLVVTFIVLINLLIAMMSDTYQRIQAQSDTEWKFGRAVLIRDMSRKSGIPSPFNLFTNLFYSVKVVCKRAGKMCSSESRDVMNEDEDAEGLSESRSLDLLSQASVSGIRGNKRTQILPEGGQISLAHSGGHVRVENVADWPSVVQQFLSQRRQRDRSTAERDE

Estrogen receptor = biological target: T5, Estrogen receptor (Homo sapiens, UniProt P03372); experiment: ERα coactivator recruitment enhancers – biochemical, TR-FRET, ERα LBD, dose response (AID 737)
T5 sequence (P03372 whole entry): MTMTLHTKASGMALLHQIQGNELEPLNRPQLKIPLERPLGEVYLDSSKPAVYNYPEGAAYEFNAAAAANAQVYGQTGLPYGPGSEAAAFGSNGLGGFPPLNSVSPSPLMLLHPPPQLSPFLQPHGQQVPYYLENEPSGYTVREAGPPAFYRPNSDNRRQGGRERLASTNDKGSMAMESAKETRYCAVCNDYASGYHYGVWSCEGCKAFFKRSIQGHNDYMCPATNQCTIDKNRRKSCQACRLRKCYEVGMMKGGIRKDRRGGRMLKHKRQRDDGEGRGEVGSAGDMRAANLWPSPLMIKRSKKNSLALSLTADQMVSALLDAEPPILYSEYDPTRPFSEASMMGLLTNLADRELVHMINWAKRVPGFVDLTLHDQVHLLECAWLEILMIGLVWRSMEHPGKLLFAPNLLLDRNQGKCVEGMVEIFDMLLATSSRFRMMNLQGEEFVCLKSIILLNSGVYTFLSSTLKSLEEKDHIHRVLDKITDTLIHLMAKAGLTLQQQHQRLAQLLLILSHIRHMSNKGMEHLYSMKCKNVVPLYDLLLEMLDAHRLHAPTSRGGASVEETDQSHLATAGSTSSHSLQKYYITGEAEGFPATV

[9] = mitochondrial function rescue without frataxin homolog – Friedreich's ataxia, plus single-dose screen, dose response (AID 1465); type: functional;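 also: yeast depleted of Yfh1p frataxin homolog grown on glycerol needing respiration; WST-1 tetrazolium dye reduction as measure of cellular dehydrogenase metabolic activity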
cells [10] = type: functional, cell-based
Nonstructural protein 1 = Nonstructural protein 1 (Influenza A virus, UniProt Q194T2); type: functional, Influenza A virus (A/California/07/2009(H1N1))
Chain of Nonstructural protein 1 (Q194T2 whole entry): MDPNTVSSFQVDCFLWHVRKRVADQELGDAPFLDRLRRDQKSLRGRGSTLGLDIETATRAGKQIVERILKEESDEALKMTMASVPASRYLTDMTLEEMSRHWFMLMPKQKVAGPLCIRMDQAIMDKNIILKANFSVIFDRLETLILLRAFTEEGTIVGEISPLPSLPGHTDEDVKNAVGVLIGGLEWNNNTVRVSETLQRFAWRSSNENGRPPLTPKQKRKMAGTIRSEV

cells [11] = type: functional, cell-based; remark: listed apart in the source
[12] = A High Throughput Confirmatory Assay used to Identify Novel Compounds that Inhibit Mycobacterium Tuberculosis in the absence of Glycerol.; type: functional
Escherichia coli = experiment: microbe, parasite or virus in culture
[13] = biological target: Serine/threonine-protein phosphatase PP1-alpha catalytic subunit (Homo sapiens, UniProt P62136); experiment: inhibition of protein phosphatase 1 activity – biochemical, fluorescence, dose response (AID 2403);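 also: phosphatase turnover of OMFP into fluorescent 3-O-methylfluorescein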
Chain of Serine/threonine-protein phosphatase PP1-alpha catalytic subunit (P62136 whole entry): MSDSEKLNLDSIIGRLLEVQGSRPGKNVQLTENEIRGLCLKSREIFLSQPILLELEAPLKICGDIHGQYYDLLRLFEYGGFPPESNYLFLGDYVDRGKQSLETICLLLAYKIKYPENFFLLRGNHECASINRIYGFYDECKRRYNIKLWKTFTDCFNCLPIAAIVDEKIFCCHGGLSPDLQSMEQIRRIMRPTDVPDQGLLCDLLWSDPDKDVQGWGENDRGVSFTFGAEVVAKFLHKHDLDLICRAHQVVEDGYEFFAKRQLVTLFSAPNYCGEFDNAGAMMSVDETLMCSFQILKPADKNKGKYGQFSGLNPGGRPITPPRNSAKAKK

[14] = biological target: Serine/threonine-protein phosphatase (Homo sapiens, UniProt Q9BPW0); experiment: Counterscreen for inhibitors of PP1: fluorescence-based biochemical high throughput dose response assay to identify inhibitors of Protein Phosphatase 5 (PP5). [Related pubchem assays: 2034 (Summary (PP5 inhibitors)), 1987 (PP5 inhibitors in singlate), 2235 (PP1 inhibitors in singlate)]
Chain of Serine/threonine-protein phosphatase (Q9BPW0 whole entry): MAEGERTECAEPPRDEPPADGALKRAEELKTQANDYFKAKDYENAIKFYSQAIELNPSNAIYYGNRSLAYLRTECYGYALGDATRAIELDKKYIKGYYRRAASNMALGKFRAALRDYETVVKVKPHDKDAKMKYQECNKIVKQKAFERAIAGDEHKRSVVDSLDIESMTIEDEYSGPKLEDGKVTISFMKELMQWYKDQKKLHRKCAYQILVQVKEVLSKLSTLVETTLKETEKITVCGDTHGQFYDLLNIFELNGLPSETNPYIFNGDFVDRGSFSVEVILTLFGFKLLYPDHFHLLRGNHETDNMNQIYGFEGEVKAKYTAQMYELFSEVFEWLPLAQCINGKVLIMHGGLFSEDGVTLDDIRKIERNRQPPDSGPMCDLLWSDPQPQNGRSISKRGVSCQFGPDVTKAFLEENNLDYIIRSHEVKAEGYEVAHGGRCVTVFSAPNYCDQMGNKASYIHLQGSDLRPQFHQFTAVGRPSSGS

Cytochrome P450 2D6 = Cytochrome P450 2D6 (Homo sapiens, UniProt P10635);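 also: CYP2D6 member of a cytochrome P450 panel assay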
Chain of Cytochrome P450 2D6 (P10635 whole entry): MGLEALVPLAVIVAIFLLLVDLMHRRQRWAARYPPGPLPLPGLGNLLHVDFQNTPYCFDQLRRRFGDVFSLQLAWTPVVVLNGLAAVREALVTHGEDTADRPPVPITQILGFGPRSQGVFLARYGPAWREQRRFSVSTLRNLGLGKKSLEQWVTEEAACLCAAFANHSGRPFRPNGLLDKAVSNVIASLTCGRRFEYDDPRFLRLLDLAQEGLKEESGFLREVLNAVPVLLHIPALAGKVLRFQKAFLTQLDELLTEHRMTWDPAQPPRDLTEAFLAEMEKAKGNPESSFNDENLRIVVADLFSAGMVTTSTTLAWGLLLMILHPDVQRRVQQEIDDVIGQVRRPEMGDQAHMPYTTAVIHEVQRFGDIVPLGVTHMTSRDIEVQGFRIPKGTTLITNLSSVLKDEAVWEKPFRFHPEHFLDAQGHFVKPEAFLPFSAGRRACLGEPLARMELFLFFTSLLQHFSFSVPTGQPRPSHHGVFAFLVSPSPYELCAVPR

HEK293 [15] = experiment: Fluorescence-based counterscreen for potentiators or agonists of NPY-Y2: cell-based high-throughput dose response assay to identify inhibitors of cyclic nucleotide gated ion channel (CNGC) activity. In this assay, the parental HEK293 cell line transfected with a cyclic-nucleotide gated ion channel (CNGC)-based cAMP sensor is used to measure inhibition of isoproterenol-induced CNGC activity by test compound.; type: functional; settings: Homo sapiens
[16] = biological target: T4, Neuropeptide Y receptor type 1; experiment: Fluorescence-based counterscreen for agonists of NPY-Y2: cell-based high-throughput dose response assay for agonists of NPY-Y1.; type: functional
[17] = biological target: T3, Neuropeptide Y receptor type 2; experiment: Fluorescence-based cell-based high-throughput dose response assay for agonists of NPY-Y2. [Related pubchem assays: 1703 (Screening assay (CNGC inhibitors).), 1359 (Screening assay (NPY-Y2 potentiators or agonists).), 1304 (Screening assay (NPY-Y1 potentiators or agonists).), 1710 (Screening assay (NPY-Y2 agonists).), 1791 (Summary AID.)]; type: functional
HEK293 [18] = experiment: inhibition of NOD1-driven NF-kB reporter – cell-based, luminescence, uHTS, primary screen (AID 1578); type: functional; settings: Homo sapiens
HEK293 [19] = experiment: cells; type: functional, cell-based; settings: Homo sapiens
Bcl-2-like protein 10 = biological target: T6, Bcl-2-like protein 10 (Homo sapiens, UniProt Q9HD36); experiment: Concentration-response of Bcl-B inhibitors by biochemical FP with TR3 (AID 1243); type: functional
T6 sequence (Q9HD36 whole entry): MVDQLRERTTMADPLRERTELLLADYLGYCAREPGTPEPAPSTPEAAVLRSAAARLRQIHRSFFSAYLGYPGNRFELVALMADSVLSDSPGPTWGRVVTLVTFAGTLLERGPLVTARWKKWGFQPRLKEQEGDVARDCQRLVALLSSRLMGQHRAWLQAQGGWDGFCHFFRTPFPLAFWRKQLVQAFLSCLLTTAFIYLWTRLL

HEK293 [20] = experiment: cells; type: functional, cell-based; settings: Homo sapiens; remark: listed apart in the source
HEK293 [21] = experiment: NOD2 signaling inhibitors in MDP-stimulated cells, cell-based, uHTS, luminescence (AID 2001); type: functional; settings: Homo sapiens

For CN1c2cccc3cccc(c23)N(C)C1(C)C, the IC50 [1] was > 50 µM (not active), the IC50 [2] was > 50 µM (not active) and the AC50 [3] was 11.4 µM (active).
In the case of COC(=O)C1=C(C(=O)OC)SC2(S1)C(C(=O)OC)=C(C(=O)OC)SC1=C2c2cccc(C)c2NC1(C)C, the IC50 (Melanocortin receptor 4) is reported as 3.83 µM (active), the IC50 [4] is reported as > 64.6 µM (inactive) and the IC50 [5] is reported as > 35 µM (not active). The IC50 [6] was > 35 µM (not active).
With CC(c1ccccc1)N(NC(=O)C(O)(c1ccccc1)c1ccccc1)C(=O)c1ccccc1 (centres undefined) the EC50 [7] was 13.9 µM (active), the EC50 (Mucolipin-3) was > 29.9 µM (not active) and the EC50 [8] was 11.3 µM (active). For the same compound, the EC50 (Ion channel NompC) was > 29.9 µM (not active).
For CSc1nnc2c(n1)OC(c1ccsc1)N(C(C)=O)c1ccccc1-2 (centres undefined), the EC50 (Estrogen receptor) was 22.6 µM (not active).
In the case of COc1ccc(O)c(/C=N/NC(=S)Nc2cccc(S(=O)(=O)N(C)C)c2)c1, the EC50 [9] is reported as > 100 µM (active), the EC50 (cells [10]) is reported as > 350 µM (not active) and the IC50 (Nonstructural protein 1) is reported as 8.98 µM (active). The EC50 (cells [11]) was 10.8 µM (active).
For O=C1c2ccccc2CC1Sc1nnc(-c2ccncc2)o1 (centres undefined), the IC50 [12] was > 100 µM (active) and the AC50 (Escherichia coli) was 268 µM (active).
For COc1ccc(NC(=O)C2C3CCC(O3)C2C(=O)O)c(OC)c1 (centres undefined), the IC50 [13] was 4.95 µM (active) and the IC50 [14] was 4.79 µM (active).
With Cc1cccc(C)c1OCC(O)CNC(C)(C)C (centres undefined) the AC50 (Cytochrome P450 2D6) was 8.91 µM (inconclusive), the EC50 (HEK293 [15]) was 17.9 µM (not active) and the EC50 [16] was > 35.4 µM (not active). The EC50 [17] was > 35.4 µM (not active).
In the case of Nc1[nH]nc2ncc3cc4ccccc4nc3c12, the EC50 (HEK293 [18]) is reported as 11.9 µM (active), the IC50 (HEK293 [19]) is reported as 7.35 µM (active) and the EC50 (Bcl-2-like protein 10) is reported as 3.74 µM (active). The IC50 (HEK293 [20]) was > 20 µM (inactive) and the IC50 (HEK293 [21]) was 8.23 µM (active).
